Patent US9034820B2, “Method and composition for modulating erythropoiesis” (priority 2011, dated 2015)
Entries after “also recorded” stand apart in the source; their conditions may differ.

Columns and labels:
[1] = test system: human CD133+ hematopoietic stem cells (hHSCs); assay: flow cytometry of CD71 and GlyA protein on cultured hHSCs; assay type: cell-based; conditions: end of stage II induction
Experimental: (§1) CD133^+ stem cells were isolated from human umbilical cord blood by magnetic microbead selection using Direct […] progenitor isolation beads (Miltenyi Biotech, Bergisch Gladbach, Germany) and MACS LS-columns (Miltenyi Biotech), and were subsequently cultured. In stage I, 10^5 CD133^+ cells were cultured in 10 ml of EDM (10^4 cells/ml), containing human stem cell factor (SCF, 50 ng/ml), human EPO (6 IU/ml), human interleukin (IL)-3 (10 ng/ml), human vascular endothelial growth factor (VEGF, 10 ng/ml), and human insulin-like growth factor (IGF)-II (250 ng/ml) for 6 days. In stage II, cells were cultured in 10 ml of EDM (3×10^4 cells/ml) in the presence of SCF (50 ng/ml) and EPO (6 IU/ml) for 4 days. In stage III, cells were cultured in 10 ml of EDM (5×10^4 cells/ml) in the presence of SCF (50 ng/ml) and EPO (2 IU/ml) for 6 days. Cultured cells respectively underwent 30-, 20-, and 10-fold expansions in stages I, II, and III. All cell cultures were incubated at 37° C. in 5% CO2 under humidified conditions. LPA (Sigma) was prepared in chloroform and methanol (1:9) and stored at −20° C. LPA was added to serum-free medium with 0.005% fatty acid-free BSA as a carrier.
(§2) Ki16425 (Cayman Chemical, Ann Arbor, Mich., USA) powder was diluted in dimethyl sulfoxide (DMSO) at a concentration of 40 mM as the stock. At the ends of stages I and II, HSCs were pretreated with Ki16425 in serum-free medium for 1 h. Then, cells were cultured in media of stages II and III containing Ki16425 at a final concentration of 20 μM. Quercetin (Sigma) was dissolved in DMSO at 100 mM as the stock and stored at −20° C. Quercetin was diluted into each final concentration by culture media for treatment.
HSC cultures were collected, washed, and stained either with anti-GlyA-PE and anti-CD71-PE/Cy5 for 30 minutes (BD Biosciences Pharmingen, San Diego, Calif., USA). Stained cells were washed and resuspended in PBS. Non-stained and single-stained samples were prepared for fluorescent compensation. […]

[2] = test system: human CD133+ hematopoietic stem cells (hHSCs); assay: real-time PCR of erythroid marker mRNA in cultured hHSCs during erythropoietic differentiation; assay type: cell-based
Experimental: as §1, §2
Total RNA extraction was isolated using Trizol Reagent (Invitrogen, Carlsbad, Calif., USA). Complementary (c)DNA was synthesized from 1 μg total RNA with a reverse-transcription polymerase chain reaction (RT-PCR). Primer sequences were:
A real-time PCR with the mixture reagent SYBR®-Green I (Thermo Scientific, San Diego, Calif., USA) was carried out on an iCycler iQ™ real-time detection system (Bio-Rad, Hercules, Calif., USA). The specificity of the primers was confirmed from a single peak of the melting curve. Each target mRNA level was evaluated from the real-time threshold cycle and compared to the GAPDH amount as an internal control.

zLPA3 = assay: o-dianisidine blood cell staining of zLPA3 morpholino-injected zebrafish embryos; assay type: in vivo, zebrafish (Danio rerio); conditions: for percentages of erythrocyte-defective embryos compared to control embryos: 48 hpf and 60 hpf; for effect of LPA3 knockdown on erythrocyte formation (o-dianisidine staining; normal, moderate, severe): injected at one-cell stage, 0, 2.5 and 5 ng, 48 hpf
Experimental: Wild-type zebrafish (Danio rerio) obtained from the Zebrafish Information Research Center (Eugene, Oreg., USA) were inbred at 27-28° C. Embryos were collected from natural spawning, washed, and incubated in 0.3× Danieau's buffer at 28° C. until being used. Each stage of fish embryos was determined from their morphology. Embryos at 12 hour post-fertilization (hpf) were treated with 0.2 mM 1-phenyl-2-thiourea (PTU) (Sigma, St. Louis, Mo., USA) in 0.3× Danieau's buffer to suppress melanization. Dechorionation of embryos was carried out with 0.01 g/ml protease (Sigma).
Glass capillary tubes were pulled by a horizontal puller (P-97, Sutter Instrument, Navato, Calif., USA). Two zLPA3 translation-blocking (t)MOs (Gene Tools, Philomath, Oreg., USA) were utilized as follows:
tMO1: 5′-[…]-3′ (−27 to −3) (SEQ ID No. 1); and
tMO2: 5′-[…]-3′ (+1 to +23) (SEQ ID No. 2).
The MOs were prepared at 1 mM in sterile H2O as a stock solution, and further diluted into desired working concentrations in 1× Danieau's buffer with 0.5% phenol red. Fish embryos were fixed on 1% injection agar plates, and 2.3 nl of solution was injected into the yolk sac and blastodisc interface with a nanoliter injector (World Precision Instruments, Sarasota, Fla., USA). The injected embryos were incubated in 0.3× Danieau's buffer at 28.5° C. for further experiments.
Embryos from designated stages were incubated in freshly prepared o-dianisidine solution (40% ethanol, 0.01 M sodium acetate, 0.65% H2O2, and 0.6 mg/ml o-dianisidine [Sigma]) for 15 minutes in the dark.

[3] = test system: human CD133+ hematopoietic stem cells (hHSCs); assay: expansion and differentiation of hHSC-derived erythroid cells in culture; assay type: cell-based; conditions: LPA present, EPO-free, data not shown
Experimental: as §1
Ki16425 (Cayman Chemical, Ann Arbor, Mich., USA) powder was diluted in dimethyl sulfoxide (DMSO) at a concentration of 40 mM as the stock. […]

[4] = stage II, 24-hour LPA 18:1 (1~10 μM), plasma-free medium, concentration-dependent

In the case of O=c1c(O)c(-c2ccc(O)c(O)c2)oc2cc(O)cc(O)c12 [quercetin], the “LPA-induced protein expression of CD71” value ([1]; quercetin (20 μM)) is reported as “decreased; also recorded: suppressed” and the “increase in CD71 mRNA under LPA induction” value ([2]; quercetin 5, 20 and 50 μM) is reported as “suppressed; also recorded: inhibited”.

“tMO2: zLPA3 translation-blocking morpholino 5′-ATGGCCAGGCACAACATCTGCTA-3′ (SEQ ID No. 2) (all phosphorodiamidate morpholino (PMO))” was tested, and the “percentages of erythrocyte-defective embryos compared to control embryos” value (zLPA3) was “significantly higher” and the “effect of LPA3 knockdown on erythrocyte formation (o-dianisidine staining; normal, moderate, severe)” value (zLPA3) was “dose-dependent effect”.

With “tMO1: zLPA3 translation-blocking morpholino 5′-CACTGTCCTAGTGGGTTTTGTCCAA-3′ (SEQ ID No. 1) (all phosphorodiamidate morpholino (PMO))” the “percentages of erythrocyte-defective embryos compared to control embryos” value (zLPA3) was “significantly higher” and the “effect of LPA3 knockdown on erythrocyte formation (o-dianisidine staining; normal, moderate, severe)” value (zLPA3) was “dose-dependent effect”.

With CCCCCCCC/C=C\CCCCCCCC(=O)OCC(O)COP(=O)(O)O (stereo not drawn) [LPA, (2-hydroxy-3-phosphonooxypropyl) (Z)-octadec-9-enoate] the “protein expression level of CD71” value ([1]; 5 and 10 μM LPA, 4 days) was “higher levels”, the “protein expression level of GlyA” value ([1]; 5 and 10 μM LPA, 4 days) was “not GlyA” and the “differentiation of erythroid cells in the absence of EPO” value [3] was “severely decreased”. The “mRNA level of CD71” value [2, 4] was “increased; also recorded: elevated”, the “mRNA level of GATA-1” value [2, 4] was “elevated” and the “mRNA level of GlyA” value [2, 4] was “elevated”.
